ChEMBL document CHEMBL5678816, “A Next-Generation TRK Kinase Inhibitor Overcomes Acquired Resistance to Prior TRK Kinase Inhibition in Patients with TRK Fusion-Positive Solid Tumors” (Cancer Discov, 2017)
The source made the active and inactive calls. The calls are words filed in the database; no cut-off is given here.

Tests used:
HT-29 = experiment: Inhibition of cell proliferation in human HT-29 cells upto 10 umol/L incubated for 72 hrs by DAPI staining based analysis; assay type: functional; conditions: dose <= 10.0 µmol/L
[1] = target: Tyrosine-protein kinase Lyn (Homo sapiens) (UniProt P07948); experiment: Inhibition of Lyn (unknown origin) at 1 uM in presence of ATP relative to control; values are per cent of control
[2] = AUC in adult patient with recurrent LMNA-NTRK1 rearranged colorectal cancer at 50 mg administered twice a day as powder-in-capsule or liquid formulation for 1 day by LC-MS/MS analysis; assay type: ADME; conditions: human, in vivo, po
[3] = AUC in pediatric patient with recurrent ETV6-NTRK3-rearranged infantile fibrosarcoma at 100 mg administered twice a day as liquid formulation for 29 day by LC-MS/MS analysis; assay type: ADME; conditions: human, in vivo
[4] = target: Tyrosine-protein kinase FRK (Homo sapiens) (UniProt P42685); experiment: Inhibition of PTK5 (unknown origin) at 1 uM in presence of ATP relative to control; values are per cent of control
[5] = Toxicity in nu/nu NCr mouse implanted with mouse NIH3T3 cells harboring extracellular domain deleted TRKA assessed as body weight loss at 30 to 300 mg/kg, po administered twice daily for 10 days relative to control; assay type: organism-based; conditions: in vivo, 240 h, dose 30-300 mg/kg, time 10 day
[6] = target: Ribosomal protein S6 kinase alpha-1 (Homo sapiens) (UniProt Q15418); experiment: Inhibition of Rsk1 (unknown origin) at 1 uM in presence of ATP relative to control; values are per cent of control
[7] = target: Homeodomain-interacting protein kinase 2 (Homo sapiens) (UniProt Q9H2X6); experiment: Inhibition of HIPK2 (unknown origin) at 1 uM in presence of ATP relative to control; values are per cent of control
[8] = target: Mitogen-activated protein kinase kinase kinase 9 (Homo sapiens) (UniProt P80192); experiment: Inhibition of MLK1 (unknown origin) at 1 uM in presence of ATP relative to control; values are per cent of control
[9] = target: Protein kinase C theta type (Homo sapiens) (UniProt Q04759); experiment: Inhibition of PKCtheta (unknown origin) at 1 uM in presence of ATP relative to control; values are per cent of control
[10] = target: Macrophage-stimulating protein receptor (Homo sapiens) (UniProt Q04912); experiment: Inhibition of Ron (unknown origin) at 1 uM in presence of ATP relative to control; values are per cent of control
[11] = target: Activated CDC42 kinase 1 (Homo sapiens) (UniProt Q07912); experiment: Inhibition of TNK2 (unknown origin) at 1 uM in presence of ATP relative to control; values are per cent of control
[12] = Inhibition of N-terminal 3FLAG-tagged ETV6-TRKC G696A mutant (unknown origin) expressed in NIH3T3 cells assessed as ERK1/2 phosphorylation incubated for 1 hrs by flow cytometric analysis; assay type: cell-based, Homo sapiens
[13] = target: Receptor-interacting serine/threonine-protein kinase 2 (Homo sapiens) (UniProt O43353); experiment: Inhibition of RIPK2 (unknown origin) at 1 uM in presence of ATP relative to control; values are per cent of control
[14] = target: Serine/threonine-protein kinase MRCK beta (Homo sapiens) (UniProt Q9Y5S2); experiment: Inhibition of MRCKbeta (unknown origin) at 1 uM in presence of ATP relative to control; values are per cent of control
[15] = target: CDK3/Cyclin E (Homo sapiens) (UniProt P24864+Q00526); experiment: Inhibition of CDK3/cyclinE (unknown origin) at 1 uM in presence of ATP relative to control; values are per cent of control
NCI-H520 = experiment: Inhibition of cell proliferation in human NCI-H520 cells upto 10 umol/L incubated for 72 hrs by DAPI staining based analysis; assay type: functional; conditions: dose <= 10.0 µmol/L
[16] = Inhibition of N-terminal 6His-tagged TRKC G623R mutant (506 to 829 residues) (unknown origin) expressed in Escherichia coli incubated for 60 mins by [gamma-33P]-ATP based TopCount NXT liquid scintillation assay; parameters: species or system Homo sapiens
[17] = target: Calcium/calmodulin-dependent protein kinase type II subunit delta (Homo sapiens) (UniProt Q13557); experiment: Inhibition of CAMK2d (unknown origin) at 1 uM in presence of ATP relative to control; values are per cent of control
[18] = Oral bioavailability in rat at 10 mg/kg administered as 1% carboxymethylcellulose 0.5% Tween 80 formulation by LC-MS analysis; assay type: ADME, organism-based; conditions: in vivo
[19] = target: RAC-gamma serine/threonine-protein kinase (Homo sapiens) (UniProt Q9Y243); experiment: Inhibition of AKT3 (unknown origin) at 1 uM in presence of ATP relative to control; values are per cent of control
MDA-MB-453 = experiment: Inhibition of cell proliferation in human MDA-MB-453 cells upto 10 umol/L incubated for 72 hrs by DAPI staining based analysis; assay type: functional; conditions: dose <= 10.0 µmol/L
[20] = target: Insulin receptor-related protein (Homo sapiens) (UniProt P14616); experiment: Inhibition of IRR (unknown origin) at 1 uM in presence of ATP relative to control; values are per cent of control
DMS-53 = experiment: Inhibition of cell proliferation in human DMS-53 cells upto 10 umol/L incubated for 72 hrs by DAPI staining based analysis; assay type: functional; conditions: dose <= 10.0 µmol/L
[21] = target: Myosin light chain kinase, smooth muscle (Homo sapiens) (UniProt Q15746); experiment: Inhibition of MYLK (unknown origin) at 1 uM in presence of ATP relative to control; values are per cent of control
[22] = target: Serine/threonine-protein kinase Nek6 (Homo sapiens) (UniProt Q9HC98); experiment: Inhibition of NEK6 (unknown origin) at 1 uM in presence of ATP relative to control; values are per cent of control
[23] = target: Calcium/calmodulin-dependent protein kinase type II subunit beta (Homo sapiens) (UniProt Q13554); experiment: Inhibition of CAMK2b (unknown origin) at 1 uM in presence of ATP relative to control; values are per cent of control
[24] = target: Serine/threonine-protein kinase haspin (Homo sapiens) (UniProt Q8TF76); experiment: Inhibition of Haspin (unknown origin) at 1 uM in presence of ATP relative to control; values are per cent of control

Macrophage-stimulating protein receptor (Homo sapiens), sequence (Q04912 25-304 limits assumed): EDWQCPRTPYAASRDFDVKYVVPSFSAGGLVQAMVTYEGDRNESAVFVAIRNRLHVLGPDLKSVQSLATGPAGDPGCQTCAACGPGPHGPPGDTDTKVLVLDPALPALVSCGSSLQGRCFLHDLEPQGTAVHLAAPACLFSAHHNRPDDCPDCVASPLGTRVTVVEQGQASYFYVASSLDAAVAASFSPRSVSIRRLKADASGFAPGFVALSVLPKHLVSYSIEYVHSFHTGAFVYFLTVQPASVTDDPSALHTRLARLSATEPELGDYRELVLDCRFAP
Macrophage-stimulating protein receptor (Homo sapiens), sequence (Q04912 310-1400 limits assumed): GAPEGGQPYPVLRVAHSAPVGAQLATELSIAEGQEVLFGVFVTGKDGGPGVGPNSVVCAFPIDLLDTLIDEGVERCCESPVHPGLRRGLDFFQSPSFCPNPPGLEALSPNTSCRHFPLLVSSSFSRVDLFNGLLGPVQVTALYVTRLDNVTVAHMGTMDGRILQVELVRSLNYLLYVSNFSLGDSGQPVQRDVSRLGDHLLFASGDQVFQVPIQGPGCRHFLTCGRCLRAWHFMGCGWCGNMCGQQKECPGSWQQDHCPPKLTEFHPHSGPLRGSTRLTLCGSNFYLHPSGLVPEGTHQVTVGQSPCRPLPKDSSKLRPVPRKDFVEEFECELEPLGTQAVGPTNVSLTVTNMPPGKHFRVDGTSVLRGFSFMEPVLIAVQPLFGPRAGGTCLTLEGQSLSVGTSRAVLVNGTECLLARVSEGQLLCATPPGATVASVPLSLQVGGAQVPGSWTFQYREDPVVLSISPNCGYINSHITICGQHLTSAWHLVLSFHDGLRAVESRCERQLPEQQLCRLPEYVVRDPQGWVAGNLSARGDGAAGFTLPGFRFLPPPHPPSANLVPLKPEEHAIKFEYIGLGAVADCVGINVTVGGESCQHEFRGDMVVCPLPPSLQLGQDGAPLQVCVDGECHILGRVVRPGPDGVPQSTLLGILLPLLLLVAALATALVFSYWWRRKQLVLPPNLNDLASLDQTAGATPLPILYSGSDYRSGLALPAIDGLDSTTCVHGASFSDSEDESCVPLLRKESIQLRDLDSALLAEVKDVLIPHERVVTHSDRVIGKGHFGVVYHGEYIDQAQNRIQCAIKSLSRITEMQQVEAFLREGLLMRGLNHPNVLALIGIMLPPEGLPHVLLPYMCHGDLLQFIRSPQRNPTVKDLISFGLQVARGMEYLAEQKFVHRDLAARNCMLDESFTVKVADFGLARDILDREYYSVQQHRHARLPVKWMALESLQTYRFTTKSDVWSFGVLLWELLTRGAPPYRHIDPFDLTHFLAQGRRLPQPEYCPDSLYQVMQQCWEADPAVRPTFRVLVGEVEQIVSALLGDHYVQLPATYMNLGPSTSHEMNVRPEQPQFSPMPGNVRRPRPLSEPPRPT
Calcium/calmodulin-dependent protein kinase type II subunit delta (Homo sapiens), sequence (Q13557 whole entry): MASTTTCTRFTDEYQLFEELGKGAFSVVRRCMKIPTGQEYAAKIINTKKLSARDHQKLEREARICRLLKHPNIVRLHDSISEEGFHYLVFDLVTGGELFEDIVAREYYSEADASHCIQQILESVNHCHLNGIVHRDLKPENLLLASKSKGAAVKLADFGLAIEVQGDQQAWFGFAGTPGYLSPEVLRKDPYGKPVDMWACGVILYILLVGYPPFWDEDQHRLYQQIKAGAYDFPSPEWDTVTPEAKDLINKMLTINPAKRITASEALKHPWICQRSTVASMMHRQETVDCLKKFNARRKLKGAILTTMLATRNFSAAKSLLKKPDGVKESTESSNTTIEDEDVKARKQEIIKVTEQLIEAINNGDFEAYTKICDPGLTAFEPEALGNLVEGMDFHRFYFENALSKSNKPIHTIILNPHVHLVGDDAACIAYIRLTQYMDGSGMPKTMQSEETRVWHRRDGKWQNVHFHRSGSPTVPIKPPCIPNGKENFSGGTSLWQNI
Ribosomal protein S6 kinase alpha-1 (Homo sapiens), sequence (Q15418 whole entry): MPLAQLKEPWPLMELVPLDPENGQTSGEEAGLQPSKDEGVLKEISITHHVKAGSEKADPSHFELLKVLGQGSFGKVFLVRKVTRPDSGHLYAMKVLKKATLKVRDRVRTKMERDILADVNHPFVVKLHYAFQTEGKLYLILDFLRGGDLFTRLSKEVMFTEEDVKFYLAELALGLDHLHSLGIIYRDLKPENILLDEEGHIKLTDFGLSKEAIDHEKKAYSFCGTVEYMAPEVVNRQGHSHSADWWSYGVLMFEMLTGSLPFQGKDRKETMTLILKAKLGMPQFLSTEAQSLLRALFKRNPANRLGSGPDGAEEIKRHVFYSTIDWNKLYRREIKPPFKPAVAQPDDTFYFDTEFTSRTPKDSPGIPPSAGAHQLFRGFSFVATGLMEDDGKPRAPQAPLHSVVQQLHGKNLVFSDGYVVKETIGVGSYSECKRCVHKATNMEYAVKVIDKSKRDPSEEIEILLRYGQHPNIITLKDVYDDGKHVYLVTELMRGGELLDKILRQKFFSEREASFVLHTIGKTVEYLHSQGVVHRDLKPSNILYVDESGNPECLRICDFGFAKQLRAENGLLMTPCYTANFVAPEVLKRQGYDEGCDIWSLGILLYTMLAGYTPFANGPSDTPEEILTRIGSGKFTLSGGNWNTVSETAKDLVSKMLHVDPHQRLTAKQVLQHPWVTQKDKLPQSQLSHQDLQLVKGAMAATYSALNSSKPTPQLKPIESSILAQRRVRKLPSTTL
Serine/threonine-protein kinase MRCK beta (Homo sapiens), sequence (Q9Y5S2 whole entry): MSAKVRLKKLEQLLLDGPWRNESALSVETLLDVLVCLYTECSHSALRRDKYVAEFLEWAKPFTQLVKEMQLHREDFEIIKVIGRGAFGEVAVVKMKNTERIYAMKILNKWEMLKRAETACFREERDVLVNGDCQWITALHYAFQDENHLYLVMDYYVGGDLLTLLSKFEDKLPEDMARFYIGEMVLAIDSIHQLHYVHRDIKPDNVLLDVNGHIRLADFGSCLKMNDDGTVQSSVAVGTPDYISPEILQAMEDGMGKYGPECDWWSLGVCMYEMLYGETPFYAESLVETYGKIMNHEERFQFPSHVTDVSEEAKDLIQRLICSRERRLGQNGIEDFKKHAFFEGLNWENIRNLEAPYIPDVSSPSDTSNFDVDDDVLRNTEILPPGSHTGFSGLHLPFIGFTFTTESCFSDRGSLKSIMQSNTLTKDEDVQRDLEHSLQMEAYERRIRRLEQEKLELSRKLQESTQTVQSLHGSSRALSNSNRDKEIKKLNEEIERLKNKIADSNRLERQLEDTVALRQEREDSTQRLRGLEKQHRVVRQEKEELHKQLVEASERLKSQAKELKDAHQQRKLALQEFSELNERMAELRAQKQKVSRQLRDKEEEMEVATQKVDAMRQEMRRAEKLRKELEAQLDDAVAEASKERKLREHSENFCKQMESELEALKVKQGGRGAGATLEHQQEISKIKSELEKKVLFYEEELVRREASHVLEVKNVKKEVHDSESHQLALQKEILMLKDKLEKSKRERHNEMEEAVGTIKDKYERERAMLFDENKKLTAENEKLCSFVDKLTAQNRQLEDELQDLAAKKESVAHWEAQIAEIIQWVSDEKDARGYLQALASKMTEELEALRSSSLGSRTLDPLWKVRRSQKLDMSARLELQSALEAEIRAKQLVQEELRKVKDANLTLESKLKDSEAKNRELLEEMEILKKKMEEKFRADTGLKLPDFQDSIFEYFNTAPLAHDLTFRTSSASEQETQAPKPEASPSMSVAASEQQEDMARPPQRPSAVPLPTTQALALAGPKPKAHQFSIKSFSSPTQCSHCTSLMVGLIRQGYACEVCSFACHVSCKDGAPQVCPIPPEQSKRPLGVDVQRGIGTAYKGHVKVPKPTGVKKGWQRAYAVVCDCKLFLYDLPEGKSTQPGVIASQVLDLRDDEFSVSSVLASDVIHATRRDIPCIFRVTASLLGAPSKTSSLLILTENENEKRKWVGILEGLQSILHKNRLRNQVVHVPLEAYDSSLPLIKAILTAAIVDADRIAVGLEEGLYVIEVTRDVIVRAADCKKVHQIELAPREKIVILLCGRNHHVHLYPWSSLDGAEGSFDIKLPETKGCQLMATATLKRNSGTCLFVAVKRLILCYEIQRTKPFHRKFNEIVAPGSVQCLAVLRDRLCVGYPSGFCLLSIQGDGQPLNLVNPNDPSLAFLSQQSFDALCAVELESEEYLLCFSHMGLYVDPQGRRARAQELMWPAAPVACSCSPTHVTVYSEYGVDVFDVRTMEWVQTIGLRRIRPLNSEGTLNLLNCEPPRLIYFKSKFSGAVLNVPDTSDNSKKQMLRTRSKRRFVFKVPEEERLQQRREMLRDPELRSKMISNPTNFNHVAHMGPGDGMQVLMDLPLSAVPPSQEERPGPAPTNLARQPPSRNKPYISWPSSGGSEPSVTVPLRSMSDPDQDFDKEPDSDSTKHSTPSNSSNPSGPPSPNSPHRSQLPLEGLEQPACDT
Receptor-interacting serine/threonine-protein kinase 2 (Homo sapiens), sequence (O43353 whole entry): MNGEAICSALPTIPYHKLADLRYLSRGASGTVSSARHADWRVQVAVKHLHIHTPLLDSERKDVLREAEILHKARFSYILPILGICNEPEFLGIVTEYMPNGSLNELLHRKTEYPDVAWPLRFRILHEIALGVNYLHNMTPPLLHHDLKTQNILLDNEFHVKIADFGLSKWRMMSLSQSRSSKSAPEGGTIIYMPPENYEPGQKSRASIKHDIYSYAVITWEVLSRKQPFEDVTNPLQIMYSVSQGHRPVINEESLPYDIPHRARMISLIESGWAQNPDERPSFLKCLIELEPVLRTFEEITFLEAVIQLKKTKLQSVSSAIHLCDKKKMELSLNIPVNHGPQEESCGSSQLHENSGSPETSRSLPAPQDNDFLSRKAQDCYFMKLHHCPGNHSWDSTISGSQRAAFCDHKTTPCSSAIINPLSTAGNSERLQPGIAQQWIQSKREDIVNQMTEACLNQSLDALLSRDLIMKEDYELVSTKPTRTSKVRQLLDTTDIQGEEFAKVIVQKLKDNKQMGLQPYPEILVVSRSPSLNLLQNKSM

C[C@@H]1CCc2ncc(F)cc2[C@H]2CCCN2c2ccn3ncc(c3n2)C(=O)N1 [SELITRECTINIB]
inhibition (HT-29): inactive | residual activity [1]: 98% | AUC at 24 h [2]: 1190 ng·h/mL | AUC at 696 h [3]: 4410 ng·h/mL | residual activity [4]: 87.5% | Activity [5]: < 5% | residual activity [6]: 109% | residual activity [7]: 113% | residual activity [8]: 96.5% | residual activity [9]: 108% | residual activity [10]: 88.5% | residual activity [11]: 10% | IC50 [12]: 17.5 nM | residual activity [13]: 100% | residual activity [14]: 128% | residual activity [15]: 104% | inhibition (NCI-H520): inactive | IC50 [16]: 2.3 nM | residual activity [17]: 100% | bioavailability [18]: 24% | residual activity [19]: 104% | inhibition (MDA-MB-453): inactive | residual activity [20]: 111% | inhibition (DMS-53): inactive | residual activity [21]: 109% | residual activity [22]: 116% | residual activity [23]: 100% | residual activity [24]: 110%
